Laboratory results from US20090118276A1, “THIENOPYRIMIDINES, THIENOPYRIDINES, AND PYRROLOPYRIMIDINES AS B-RAF INHIBITORS” (priority 2007, published 2009).

target: T1, Flag/GST-tagged recombinant human B-Raf (Homo sapiens, UniProt P15056); assay: B-Raf Kinase to MEK1 ELISA; assay type: biochemical; details: not given
T1 construct: Flag; GST; made in house; host or cells: Sf9 insect cells (B-Raf); E. coli (MEK1-GST)
Description: B-Raf Kinase to MEK1 ELISA
B-Raf1 Kinase Assay Procedure: B-Raf-1 is used to phosphorylate GST-MEK1.
B-Raf Assay Stock Solutions:
1. Assay Dilution Buffer (ADB): 20 mM MOPS, pH 7.2, 25 mM β-glycerol phosphate, 5 mM EGTA, 1 mM sodium orthovanadate, 1 mM dithiothreitol, 0.01% Triton X-100.
2. Magnesium/ATP Cocktail: ADB solution (minus Triton X-100) plus 200 μM cold ATP and 40 mM magnesium chloride.
4. Active Kinase: Active B-Raf: used at 0.2 nM per assay point.
8. Anti pMEK Ab (Upstate)
9. Anti-rabbit Ab/Europium conjugate (Wallac)
1. Add 25 μl of ADB containing B-Raf and Mek per assay (i.e. per well of a 96 well plate)
2. Add 25 μl of 0.2 mM ATP and 40 mM magnesium chloride in Magnesium/ATP Cocktail.
3. Incubate for 45 minutes at RT with occasional shaking.
4. Transfer this mixture to an anti-GST Ab coated 96 well plate (Nunc Immunosorb plates coated o/n with a-GST. Plate freshly washed 3× with TBS-T before use.
5. Incubate o/n at 30° C. in cold room.
6. Wash 3× with TBST, add Anti-Phospho MEK1 (1:1000, dilution depends upon lot)
7. Incubate for 60 minutes at RT in a shaking incubator
8. Wash 3× with TBST, add Anti-rabbit Ab/Europium conjugate (Wallac) (1:500, dilution depends upon lot)
9. Incubate for 60 minutes at RT on a platform shaker.
10. Wash plate 3× with TBS-T
11. Add 100 μl of Wallac Delfia Enhancement Solution and shake for 10 minutes.
12. Read plates in Wallac Victor model Plate Reader.
13. Collect data analyze in Excel for single point and IC50 determinations.
The % inhibition was determined for each compound concentration.

T1 sequence (P15056 whole entry): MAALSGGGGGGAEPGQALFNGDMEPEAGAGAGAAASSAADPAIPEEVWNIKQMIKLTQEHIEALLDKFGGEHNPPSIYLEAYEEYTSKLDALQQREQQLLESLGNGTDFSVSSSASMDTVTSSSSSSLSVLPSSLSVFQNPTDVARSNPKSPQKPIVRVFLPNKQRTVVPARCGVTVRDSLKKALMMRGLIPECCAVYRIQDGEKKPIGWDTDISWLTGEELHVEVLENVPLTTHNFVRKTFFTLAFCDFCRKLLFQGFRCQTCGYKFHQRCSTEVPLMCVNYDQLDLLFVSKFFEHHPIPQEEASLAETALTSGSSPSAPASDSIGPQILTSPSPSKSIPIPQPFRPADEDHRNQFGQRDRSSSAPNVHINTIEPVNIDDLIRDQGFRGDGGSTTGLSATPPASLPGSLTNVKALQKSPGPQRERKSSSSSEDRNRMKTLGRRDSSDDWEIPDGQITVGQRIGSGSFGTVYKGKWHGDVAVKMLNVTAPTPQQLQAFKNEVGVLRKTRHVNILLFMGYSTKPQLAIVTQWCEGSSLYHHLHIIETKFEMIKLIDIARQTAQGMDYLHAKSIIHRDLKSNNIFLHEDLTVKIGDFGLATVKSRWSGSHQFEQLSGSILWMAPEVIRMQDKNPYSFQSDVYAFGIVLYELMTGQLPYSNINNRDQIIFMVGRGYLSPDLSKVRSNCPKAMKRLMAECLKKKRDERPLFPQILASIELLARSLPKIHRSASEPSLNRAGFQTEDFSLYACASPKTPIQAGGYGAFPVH

SMILES	IC50
CN(C)Cc1ccc(-n2ccc3c(-c4cccc(NC(=O)c5cccc(C(F)(F)F)c5)c4)ncnc32)cc1 [Compound 111, N-[3-(7-{4-[(dimethylamino)methyl]phenyl}-7H-pyrrolo[2,3-d]pyrimidin-4-yl)phenyl]-3-(trifluoromethyl)benzamide]	0.432 µM
O=C(Nc1cccc(-c2ncnc3cc(-c4ccncc4)sc23)c1)c1cccc(C(F)(F)F)c1 [Compound 6, N-[3-(6-pyridin-4-ylthieno[3,2-d]pyrimidin-4-yl)phenyl]-3-(trifluoromethyl)benzamide]	0.54 µM
N#Cc1ccccc1Cn1ccc2c(-c3cccc(NC(=O)c4cccc(C(F)(F)F)c4)c3)ncnc21 [Compound 94, N-{3-[7-(2-cyanobenzyl)-7H-pyrrolo[2,3-d]pyrimidin-4-yl]phenyl}-3-(trifluoromethyl)benzamide]	2.47 µM

same assay, conditions: phosphorylation of GST-MEK1 by B-Raf (0.2 nM), phospho-MEK1 antibody/Europium readout; compound concentrations from 1 μM to 3 nM or 0.1 μM to 300 pm in half log dilutions; read-out: IC50

SMILES	IC50
CC(=O)Nc1ccc(-c2cc3c(-c4cccc(NC(=O)c5cccc(C(F)(F)F)c5)c4)ncnc3s2)cc1 [Compound 68, N-(3-{6-[4-(acetylamino)phenyl]thieno[2,3-d]pyrimidin-4-yl}phenyl)-3-(trifluoromethyl)benzamide]	0.872 µM
CC(=O)c1cccc(-c2cc3c(-c4cccc(NC(=O)c5cccc(C(F)(F)F)c5)c4)ncnc3s2)c1 [Compound 81, N-{3-[6-(3-acetylphenyl)thieno[2,3-d]pyrimidin-4-yl]phenyl}-3-(trifluoromethyl)benzamide]	3.2 µM
NC(=O)c1cc2c(-c3cccc(NC(=O)c4cccc(C(F)(F)F)c4)c3)ncnc2s1 [Compound 89, 4-(3-{[3-(trifluoromethyl)benzoyl]amino}phenyl)thieno[2,3-d]pyrimidine-6-carboxamide]	2.72 µM
